From patent US20230312524A1, “ALPHA1A-ADRENERGIC RECEPTOR AGONISTS AND METHODS OF USE” (CuraSen Therapeutics, Inc., priority 2020, published 2023)
Like-named read-outs stand apart in the source and are kept apart here.

Assays:
α1A-adrenergic receptor = molecular target: T1, α1A-adrenergic receptor (Homo sapiens, UniProt P35348); conditions: as compared to noradrenaline; InsPs accumulation assay; Blue et al., Table 1; cited from earlier work
T1 sequence (P35348 1-466): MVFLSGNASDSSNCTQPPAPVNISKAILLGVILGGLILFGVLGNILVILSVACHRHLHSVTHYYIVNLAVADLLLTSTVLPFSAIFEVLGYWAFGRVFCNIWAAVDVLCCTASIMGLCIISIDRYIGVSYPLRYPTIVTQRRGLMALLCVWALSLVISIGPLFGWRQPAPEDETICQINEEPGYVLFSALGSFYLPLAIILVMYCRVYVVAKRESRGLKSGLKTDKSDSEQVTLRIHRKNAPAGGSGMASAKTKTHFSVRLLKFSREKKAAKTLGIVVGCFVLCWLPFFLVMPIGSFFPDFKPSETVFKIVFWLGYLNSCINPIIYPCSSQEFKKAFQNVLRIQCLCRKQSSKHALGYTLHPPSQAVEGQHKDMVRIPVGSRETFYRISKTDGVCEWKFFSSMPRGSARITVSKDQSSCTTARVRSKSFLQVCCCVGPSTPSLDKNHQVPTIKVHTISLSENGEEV

α1A-ARS = molecular target: T2, α1A-ARS (Homo sapiens, UniProt P35348); test: Calcium flux assay (Calcium 6 dye) in cells expressing an α1-AR; assay type: cell-based; conditions: for Emax: read-out: Average Emax; for EC50: mean of at least three experiments, read-out: Average PEC50
T2 sequence (P35348 1-466): T1 sequence (P35348 1-466)
Excerpt: Calcium flux experimental design: alpha-1 adrenergic receptors (α1-ARs) couple to Gq proteins, which results in downstream activation of phospholipase C and release of calcium from intracellular stores. Intracellular calcium increase upon α1-AR activation can be detected by Calcium 6 dye.
Cell preparation: cells expressing an α1-AR were washed in warmed phosphate-buffered saline to remove medium and harvested using versene (Caisson Labs, catalog #EDL01).
Media was removed from cells by tapping plates upside-down on absorbent wipes, followed by 15 second upside-down 50×g centrifugation, again on absorbent wipes. 12 μL cell dye solution was added to cells using a reagent dispenser (Integra viaFILL) and cells were incubated for 90 minutes at 37° C., 5% CO2.
Compound preparation: candidate alpha-adrenergic compounds, dissolved to 10 mM in DMSO, were diluted in_assay buffer (HBSS/H-EPES containing 2 mM CaCl2 and 2 mM probenecid sodium salt). […] On all assay plates, vehicle (DMSO) and positive control (10 μM epinephrine) conditions were included on the plate, as well as a dose-response curve of epinephrine. […] 384 well compound plates were centrifuged briefly at 250×g, sealed (Axygen PCR-SP) and incubated at 37° C. until the 90 minute cell dye incubation was complete.
Calcium 6 stained cells and 384 well compound plates were loaded onto the Flexstation and incubated on the machine for 5 minutes before initiating the assay.
For each assay well, baseline Calcium 6 fluorescence was detected for 18 seconds prior to 12 μL compound addition at 12 μL per second. Changes in Calcium 6 fluorescence were detected for a further 22 seconds, for a total read time of 40 seconds. All detection was performed with medium gain sensitivity, bottom read, with 6 flashes per read.
Data analysis: for calcium flux, analysis of maximum change from baseline over the 40-second read time was determined using Softmax Pro and data was exported as raw text files. Potency estimates (EC50) were derived from dose response curves (maximum change from baseline versus the log concentration of test compound) fit by four-parameter nonlinear regression using Graphpad Prism. Efficacy was determined by comparing the magnitude of the test compound signal window (fitted curve max−min) with the signal window of the full agonist control, epinephrine. […] All experiments were repeated a minimum of three times, with the average (mean) potency and maximum effect relative to the within-plate full agonist dose-response comparator reported.

[1] = calcium flux, α1A-AR, maximum effect relative to full agonist epinephrine

SMILES | intrinsic activity (α1A-adrenergic receptor) | Emax (α1A-ARS; [1]) | EC50 (α1A-ARS; calcium flux, α1A-AR) | Emax (α1A-ARS)
Cc1c(OCC2=NCCN2)ccc(Cl)c1NS(C)(=O)=O [RO 115-1240 (dabuzalgron) free base, dabuzalgron] | 0.31 |  |  | 
Clc1ccc(CC2=NCCN2)c(C2CCOCC2)c1 [Compound 118] |  | < 20% | > 1000 nM | 
Cc1c(CC2=NCCN2)cccc1-c1ccco1 [Compound 29] |  | 21 to 60% | 10 to 977 nM | 
Cc1c(CC2=NCCN2)ccc(Cl)c1-c1nccs1 [Compound 36] |  | < 20% | > 1000 nM | 
Cc1c(CC2=NCCN2)ccc(S(=O)(=O)C(F)(F)F)c1Cl [Compound 159] |  | 21 to 60% | > 1000 nM | 
Cc1csc(-c2cc(Cl)ccc2CC2=NCCN2)n1 [Compound 24] |  | 21 to 60% | 10 to 977 nM | 
Clc1ccc(CC2=NCCN2)c(-c2ccccn2)c1 [Compound 18] |  | > 61% | 10 to 977 nM | 
Cc1ccccc1CC1=NCCN1 [Compound 155] |  |  | 10 to 977 nM | 21 to 60%
Cc1c(CC2=NCCN2)ccc(S(C)(=O)=O)c1Cl [Compound 139] |  | 21 to 60% | > 1000 nM | 
Clc1ccc(CC2=NCCN2)c(-c2ncccn2)c1 [Compound 32] |  | > 61% | 10 to 977 nM | 
Clc1ccc(CC2=NCCN2)c(-c2cnccn2)c1 [Compound 27] |  | 21 to 60% | 10 to 977 nM | 
COc1c(CC2=NCCN2)ccc2occc12 [Compound 47] |  |  | 10 to 977 nM | 21 to 60%
Clc1ccc(CC2=NCCN2)c(CC2CCOCC2)c1 [Compound 119] |  | < 20% | > 1000 nM | 
CC(C)c1cc(Cl)ccc1CC1=NCCN1 [Compound 84] |  |  | 10 to 977 nM | 21 to 60%
Cc1oc2cc(CC3=NCCN3)ccc2c1C [Compound 43] |  |  | 10 to 977 nM | 21 to 60%
c1cc(CC2=NCCN2)c2occc2c1 [Compound 48] |  |  | 10 to 977 nM | > 61%
COc1cc(Cl)ccc1CC1=NCCN1 [Compound 40] |  |  | 10 to 977 nM | 21 to 60%
Cc1oc2ccc(CC3=NCCN3)cc2c1C [Compound 42] |  |  | > 1000 nM | < 20%
Cc1cc(F)ccc1CC1=NCCN1 [Compound 73] |  |  | 10 to 977 nM | 21 to 60%
FC(F)(F)c1cccc(Cl)c1CC1=NCCN1 [Compound 134] |  |  | 10 to 977 nM | > 61%
CCc1cc(S(=O)(=O)C(F)(F)F)ccc1CC1=NCCN1 [Compound 111] |  | > 61% | 10 to 977 nM | 
Clc1cc(CC2=NCCN2)ccc1-c1ncco1 [Compound 3] |  | < 20% | > 1000 nM | 
Clc1cc2occc2cc1CC1=NCCN1 [Compound 53] |  |  | < 9.77 nM | > 61%
Clc1ccc(CC2=NCCN2)c(-c2ncco2)c1 [Compound 13] |  | > 61% | 10 to 977 nM | 
Cc1c(CC2=NCCN2)ccc(Cl)c1-c1ccnn1C [Compound 15] |  | < 20% | > 1000 nM | 
FC(F)(F)c1ccc(CC2=NCCN2)c(-c2ccccc2)c1 [Compound 75] |  | > 61% | 10 to 977 nM | 
Clc1ccc(CC2=NCCN2)c(-c2cccnn2)c1 [Compound 33] |  | < 20% | > 1000 nM | 

SMILES | intrinsic activity (α1A-adrenergic receptor) | Emax (α1A-ARS; [1]) | EC50 (α1A-ARS; calcium flux, α1A-AR) | Emax (α1A-ARS)
Cc1c(Cl)cccc1CC1=NCCN1 [Compound 89] |  |  | > 1000 nM | 21 to 60%
FC(F)(F)c1ccc(Cl)c(CC2=NCCN2)c1 [Compound 132] |  |  | 10 to 977 nM | > 61%
CC(F)(F)c1cc(OC(F)(F)F)ccc1CC1=NCCN1 [Compound 162] |  | 21 to 60% | > 1000 nM | 
Cc1c(CC2=NCCN2)ccc(Cl)c1-c1ncco1 [Compound 14] |  | 21 to 60% | 10 to 977 nM | 
Clc1ccc(CC2=NCCN2)cc1-n1cccn1 [Compound 23] |  | 21 to 60% | 10 to 977 nM | 
CCc1cc(S(=O)(=O)CF)ccc1CC1=NCCN1 [Compound 110] |  | > 61% | 10 to 977 nM | 
Cc1c(CC2=NCCN2)cccc1C(F)(F)F [Compound 126] |  |  | 10 to 977 nM | 21 to 60%
CCc1cc(F)ccc1CC1=NCCN1 [Compound 71] |  |  | 10 to 977 nM | 21 to 60%
FC(F)(F)Oc1ccc(CC2=NCCN2)c(Cl)c1 [Compound 135] |  |  | 10 to 977 nM | 21 to 60%
CC(C)(C)c1cc(Cl)ccc1CC1=NCCN1 [Compound 41] |  |  | > 1000 nM | < 20%
FC(F)(F)c1ccc(CC2=NCCN2)c(Cl)c1 [Compound 133] |  |  | 10 to 977 nM | 21 to 60%
Cc1c(CC2=NCCN2)ccc(Cl)c1-c1cn[nH]c1 [Compound 17] |  | < 20% | > 1000 nM | 
Cc1c(CC2=NCCN2)ccc(S(=O)(=O)C(F)F)c1Cl [Compound 149] |  | 21 to 60% | > 1000 nM | 
Cc1c(CC2=NCCN2)cc(Cl)c2[nH]ccc12 [Compound 100] |  |  | < 9.77 nM | > 61%
FC(F)(F)Oc1cc(Cl)ccc1CC1=NCCN1 [Compound 85] |  |  | 10 to 977 nM | 21 to 60%
CCC(F)(F)c1cc(Cl)ccc1CC1=NCCN1 [Compound 121] |  |  | 10 to 977 nM | 21 to 60%
FC(F)(F)c1coc2c(CC3=NCCN3)cccc12 [Compound 92] |  |  | > 1000 nM | 21 to 60%
C[C@@H](O)c1ccc(CC2=NCCN2)c(Cl)c1 [Compound 164] |  | > 61% | < 9.77 nM | 
Cc1c(CC2=NCCN2)ccc2[nH]ncc12 [Compound 55] |  |  | 10 to 977 nM | 21 to 60%
CCc1c(CC2=NCCN2)ccc(S(=O)(=O)CF)c1Cl [Compound 141] |  | > 61% | > 1000 nM | 
CCc1c(Cl)cccc1CC1=NCCN1 [Compound 99] |  |  | > 1000 nM | 21 to 60%
Clc1cccc(CC2=NCCN2)c1-n1cccc1 [Compound 109] |  | > 61% | 10 to 977 nM | 
Clc1ccc(CC2=NCCN2)c(-c2nccs2)c1 [Compound 25] |  | > 61% | < 9.77 nM | 
Clc1ccc(CC2=NCCN2)c(-c2cccnc2)c1 [Compound 19] |  | > 61% | > 1000 nM | 
Cc1cc2cccc(CC3=NCCN3)c2o1 [Compound 59] |  |  | 10 to 977 nM | > 61%
Cc1c(CC2=NCCN2)cccc1-c1cc[nH]n1 [Compound 20] |  | 21 to 60% | 10 to 977 nM | 
